Among the data in patent US9809623B2, “α4β7 peptide monomer and dimer antagonists” (Protagonist Therapeutics, Inc., priority 2014, dated 2017) are Schild slope and Kb values, retold here.

For this experiment, the target named is α4β7 integrin (Homo sapiens, UniProt P13612+P26010). Briefly: Schild analysis, MAdCAM binding to immobilized α4β7 integrin by ELISA. To be noted: global-fit Schild analysis. Here is the method:
Schild analysis was used to determine if Peptide X blocked MAdCAM binding to α4β7 integrin by a simple competitive mechanism. […] Based on the dose-response shifts, global-fit Schild analysis was used to determine the Schild slope and equilibrium dissociation constant (KB). The slope was ˜1, which indicated the inhibition is orthosteric antagonism with respect to MAdCAM, and not allosteric antagonism. […] The estimated KB value was 1 nM, which was similar to other Peptide X potency values in different assays.

Numbered stars: 1 amine (or outer) side, 2 acyl side, 3 side chain; on linkers, the order of the positions; unused ones are H or OH. Bridge positions count the residues as written; N and C are the ends. Square brackets hold non-standard residues; d marks the D form. Peptide text beside a SMILES is read from it. I, II: the chains in the order shown. ξ: configuration not given here. Phe(4-tBu) = CC(C)(C)c1ccc(C[C@H](N)C(=O)O)cc1; Diglycolyl = O=C(COCC(=O)[*:2])[*:1]; NMeR = CN[C@@H](CCCNC(=N)N)C(=O)O; β3hE = N[C@@H](CCC(=O)O)CC(=O)O; Thr(3ξ) = CC(O)[C@H](N)C(=O)O; Pen = CC(C)(S)[C@H](N)C(=O)O

Sequence of α4β7 integrin (P13612 34-977 limits assumed): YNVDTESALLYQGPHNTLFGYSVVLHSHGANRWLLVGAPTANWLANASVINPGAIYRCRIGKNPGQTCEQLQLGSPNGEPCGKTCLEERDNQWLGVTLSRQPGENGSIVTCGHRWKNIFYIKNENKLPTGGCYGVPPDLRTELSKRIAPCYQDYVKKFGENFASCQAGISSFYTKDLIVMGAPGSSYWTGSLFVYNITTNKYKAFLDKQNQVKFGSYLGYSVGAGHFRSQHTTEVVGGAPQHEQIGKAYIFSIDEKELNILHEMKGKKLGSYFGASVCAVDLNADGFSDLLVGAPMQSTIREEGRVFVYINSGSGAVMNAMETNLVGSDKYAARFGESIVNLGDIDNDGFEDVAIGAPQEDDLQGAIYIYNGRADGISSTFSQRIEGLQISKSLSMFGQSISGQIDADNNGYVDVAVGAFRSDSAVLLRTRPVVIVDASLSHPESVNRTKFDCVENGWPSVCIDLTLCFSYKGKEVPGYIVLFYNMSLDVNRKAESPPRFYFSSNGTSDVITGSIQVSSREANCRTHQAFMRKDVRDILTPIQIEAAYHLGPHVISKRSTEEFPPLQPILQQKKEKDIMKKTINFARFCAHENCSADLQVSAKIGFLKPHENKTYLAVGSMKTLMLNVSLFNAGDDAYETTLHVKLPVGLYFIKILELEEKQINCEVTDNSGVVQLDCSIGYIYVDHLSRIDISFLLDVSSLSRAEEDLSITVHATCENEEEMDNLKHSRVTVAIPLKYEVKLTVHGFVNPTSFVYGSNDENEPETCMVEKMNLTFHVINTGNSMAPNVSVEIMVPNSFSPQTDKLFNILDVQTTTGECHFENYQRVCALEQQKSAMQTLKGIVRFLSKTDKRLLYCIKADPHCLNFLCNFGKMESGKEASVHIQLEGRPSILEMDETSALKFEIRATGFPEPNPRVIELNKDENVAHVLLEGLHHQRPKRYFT
Sequence of α4β7 integrin (P26010 20-723 limits assumed): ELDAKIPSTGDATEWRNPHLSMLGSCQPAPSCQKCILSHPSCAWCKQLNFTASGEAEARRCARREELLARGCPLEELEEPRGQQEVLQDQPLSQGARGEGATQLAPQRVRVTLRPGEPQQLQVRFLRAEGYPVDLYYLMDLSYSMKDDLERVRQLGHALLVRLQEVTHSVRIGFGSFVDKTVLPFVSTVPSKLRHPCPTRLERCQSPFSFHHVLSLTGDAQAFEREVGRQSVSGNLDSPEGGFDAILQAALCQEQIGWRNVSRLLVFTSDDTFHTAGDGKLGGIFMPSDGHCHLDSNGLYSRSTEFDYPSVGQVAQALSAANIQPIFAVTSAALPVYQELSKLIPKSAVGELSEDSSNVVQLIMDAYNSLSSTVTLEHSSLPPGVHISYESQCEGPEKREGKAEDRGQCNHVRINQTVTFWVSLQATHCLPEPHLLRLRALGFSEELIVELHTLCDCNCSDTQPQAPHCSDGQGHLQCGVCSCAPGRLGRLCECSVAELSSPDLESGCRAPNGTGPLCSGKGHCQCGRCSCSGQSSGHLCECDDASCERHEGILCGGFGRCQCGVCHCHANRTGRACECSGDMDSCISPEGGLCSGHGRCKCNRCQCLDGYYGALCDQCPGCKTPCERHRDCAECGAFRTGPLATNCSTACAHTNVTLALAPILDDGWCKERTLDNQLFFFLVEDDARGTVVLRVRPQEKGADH

Take `CC(=O)N[C@@H]1C(=O)N(C)[C@@H](CCCNC(=N)N)C(=O)N[C@@H](CO)C(=O)N[C@@H](CC(=O)O)C(=O)N[C@@H](C(C)O)C(=O)N[C@@H](CC(C)C)C(=O)N[C@H](C(=O)N[C@@H](Cc2ccc(C(C)(C)C)cc2)C(=O)N[C@@H](CCC(=O)O)CC(=O)N[C@H](CCCCNC(=O)COCC(=O)NCCCC[C@@H](NC(=O)C[C@H](CCC(=O)O)NC(=O)[C@H](Cc2ccc(C(C)(C)C)cc2)NC(=O)[C@H]2NC(=O)[C@H](CC(C)C)NC(=O)[C@H](C(C)O)NC(=O)[C@H](CC(=O)O)NC(=O)[C@H](CO)NC(=O)[C@H](CCCNC(=N)N)N(C)C(=O)[C@@H](NC(C)=O)C(C)(C)SSC2(C)C)C(N)=O)C(N)=O)C(C)(C)SSC1(C)C` (stereo partly drawn) [Peptide X, [Ac-Pen-(N-Me-Arg)-Ser-Asp-Thr-Leu-Pen-(Phe(4-tBu))-(β-homoGlu)-(D-Lys)]2-DIG] (I: Ac-[Pen][NMeR]SD[Thr(3ξ)]L[Pen][Phe(4-tBu)][β3hE][dK]-NH2 / II: Ac-[Pen][NMeR]SD[Thr(3ξ)]L[Pen][Phe(4-tBu)][β3hE][dK]-NH2; disulfide I:1-I:7, II:1-II:7; linker I:10-II:10 via Diglycolyl): the Schild slope is around 1. For the setting “estimated, read-out: equilibrium dissociation constant (KB)”, the Kb is 1 nM.
